Results published in patent US4863925A, “Cyclohexanedione derivative for hepatic disorders and a process for producing the same” (Nihon Nohyaku Co., Ltd., priority 1986, dated 1989).

Experiments:
[1] = tested on: hepatic disorder caused by carbon tetrachloride; experiment: Effect of suppressing hepatic disorder caused by carbon tetrachloride (Test Example 1); assay type: in vivo, mice (dd-strain, male); design: key to Liver injury index: 0 = healthy, 2 = slight, 4 = evident injury, 6 = serious injury; conditions: 30 mg/kg p.o., 6 h before CCl4 0.05 ml/kg p.o., 24 h after CCl4, mean of five mice; for Liver injury index: 0 healthy, 2 slightly affected, 4 evidently observed injury, 6 serious injury; for P-GPT (plasma glutamic pyruvic transaminase activity): Reitman-Frankel, 2,000 or higher calculated as 2,000
Experimental: Effect of suppressing hepatic disorder caused by carbon tetrachloride. […] The animals were sacrificed 24 hours after the administration of carbon tetrachloride, and the extent of liver injury was examined. On the other hand, blood was collected from the animal at the time of the sacrifice, and centrifuged to obtain plasma. The plasma glutamic pyruvic transminase (GPT) activity was determined according to the method of Reitman-Frankel. The activity was expressed in terms of Karmen Units (K.U.). The conditions of the liver were expressed in terms of liver injury index as follows. |Liver injury index | Condition of liver |0 Healthy liver |2 Slightly affected |4 Evidently observed injury |6 Serious injury Mice were used in groups of five of test were represented by the mean value. When the GPT activity was 2,000 units or higher, or further determination was made, the activity was calculated as 2,000 units for reasons of convenience.

[2] = acute oral toxicity (LD50); conditions: in vivo, male rat
Experimental: For example, LD50 value (acute oral toxicity to male rat) of the compound No. 55 is more than 1,000 mg/kg.

SMILES	Liver injury index [1]	P-GPT (plasma glutamic pyruvic transaminase activity) [1] [K.U.]	LD50 [2] [mg/kg]
COc1ccc(C2CC(=O)C(=C3SC4C(S3)N(C)CCN4C)C(=O)C2)cc1 (centres unmarked) [compound 55]	0.3	107	> 1000
CN1CCN(C)C2(C)SC(=C3C(=O)CC(c4ccco4)CC3=O)SC12 (centres unmarked) [compound 90]	0	15	–
